Our source for the IC50 values is US20230416314A1, “MODIFIED HIGH MOLECULAR WEIGHT GLUTENIN SUBUNIT AND USES THEREOF” (Ukko Inc., priority 2020, published 2023).

Usually IC50 stands for the concentration that inhibits the measured activity by half.

Where two headings read alike, the source gives them in different places. Residues, ends and D or L forms follow the SMILES beside them. No end group written: not given here.

Assay [1] deals with HLA-DQ8 (Homo sapiens, UniProt P01909+P01920, A209T/A45G/C70Q/D89A/DUP78-78/E183D/E77G/F237L/G63E/H199R/I129T/K197E/L178F/L74F/L98V/Q57E/Q76R/S185I/S97I/T217I/T49S/V73L/Y58L). As to the kind of experiment: MHC II/peptide competition binding assay, HLA-DQ8. The procedure: (§1) One skilled in the art would appreciate that the 15-mers used included shorter de-epitoped high molecular weight glutenin peptide sequences (mutated repeating antigenic units), as described throughout. For example, Table 2 provides a listing of 15-mers and the shorter mutated repeating antigenic units present therein. […] MHC II molecules were purified by affinity chromatography, and peptides were radiolabeled using the chloramine T method. After an incubation period, the bound and unbound radiolabeled species were separated, and their relative amounts were determined by either size-exclusion gel-filtration chromatography or monoclonal antibody capture of MHC. The percent of bound radioactivity was then determined.

Assay [2] addresses HLA-DQ2.5 (Homo sapiens, UniProt P01909+P01920, A45G/A70V/D89A/E106A/E77G/E98D/H199R/L107V/N214S/P84L/P87L/T103K/T109R/T172A/T60S/V78E/V99I/Y58L/Y62S/Y69I/Y79F). Briefly: MHC II/peptide competition binding assay, HLA-DQ2.5. The procedure:
as §1

Assay [3] addresses HLA-DQ2.2 (Homo sapiens, UniProt P01909+P01920, A45G/A70V/C70K/D167G/D89A/E106A/E183D/E77G/E98D/F237L/F77L/G63E/H199R/I129T/K197E/L107V/L178F/L74F/N214S/P84L/P87L/Q57E/Q76R/R75H/S185I/S97I/T103K/T109R/T172A/T60S/V73L/V78E/V99I/Y48F/Y58L/Y62S/Y69I/Y79F). As to the kind of experiment: MHC II/peptide competition binding assay, HLA-DQ2.2. The procedure: as §1
The target in assay [4] is HLA-DQ7.5 (Homo sapiens, UniProt P01909+P01920). Briefly: MHC II/peptide competition binding assay, HLA-DQ7.5. The procedure: The peptides were synthesized as purified material on the 2 mg scale with free acid C-termini (A&A labs, USA). One skilled in the art would appreciate that the 15-mers used included shorter de-epitoped high molecular weight glutenin peptide sequences (mutated repeating antigenic units), as described throughout. For example, Table 2 provides a listing of 15-mers and the shorter mutated repeating antigenic units present therein.
Briefly, competition assays using different concentrations of wild-type (WT) and modified glutenin peptides were conducted by diluting the peptides in NP40 buffer, and incubation for 2-4 days with purified MHC II and a radiolabeled known MHC binding peptide (peptide probe). MHC II molecules were purified by affinity chromatography, and peptides were radiolabeled using the chloramine T method. After an incubation period, the bound and unbound radiolabeled species were separated, and their relative amounts were determined by either size-exclusion gel-filtration chromatography or monoclonal antibody capture of MHC. The percent of bound radioactivity was then determined.

Assay [5] has as its target HLA-DQ7.5. Briefly: MHC II competition binding assay (purified MHC II, radiolabeled probe peptide as competitor).
Assay [6] deals with HLA-DQ8. The description is as above.
For assay [7], the target named is HLA-DQ2.5. Described as above.
Assay [8] concerns the target HLA-DQ2.2. Described as above.
[9] abbreviates: Table 3, 15-mer peptides, >40000 signifies binding is undetectable by assay.

As to `CC(C)C[C@H](NC(=O)[C@H](CC(=O)O)NC(=O)[C@H](CCCNC(=N)N)NC(=O)CNC(=O)[C@H](CCC(=O)O)NC(=O)[C@H](CCC(N)=O)NC(=O)CNC(=O)[C@@H](N)CCC(N)=O)C(=O)N[C@H](C(=O)N[C@@H](CO)C(=O)N1CCC[C@H]1C(=O)N[C@@H](CCCCN)C(=O)N[C@@H](CCC(N)=O)C(=O)N[C@@H](CO)C(=O)NCC(=O)O)[C@@H](C)O` [SEQ ID NO: 169] (H-QGQEGRDLTSPKQSG-OH), the IC50 in assay [1], in assay [2], in assay [3] and in assay [4] was over 40 µM in each case.
`C[C@@H](O)[C@H](NC(=O)[C@@H]1CCCN1C(=O)[C@H](CC(=O)O)NC(=O)[C@H](CC(N)=O)NC(=O)CNC(=O)[C@H](CCC(=O)O)NC(=O)[C@H](CCC(N)=O)NC(=O)CNC(=O)[C@@H](N)CCC(N)=O)C(=O)NCC(=O)N1CCC[C@H]1C(=O)N[C@@H](CCC(=O)O)C(=O)N[C@@H](CCC(N)=O)C(=O)N[C@@H](CO)C(=O)NCC(=O)O` [P1g] (H-QGQEGNDPTGPEQSG-OH): the IC50 in assay [1] (setting [9]), in assay [2] (setting [9]), in assay [3] (setting [9]) and in assay [4] (setting [9]) was over 40 µM each time.
Regarding `CC(C)C[C@H](NC(=O)CNC(=O)[C@H](CCCNC(=N)N)NC(=O)CNC(=O)[C@H](CCC(=O)O)NC(=O)[C@H](CCC(N)=O)NC(=O)CNC(=O)[C@@H](N)CCC(N)=O)C(=O)N[C@H](C(=O)N[C@@H](CO)C(=O)N1CCC[C@H]1C(=O)N[C@@H](Cc1c[nH]cn1)C(=O)N[C@@H](CCC(N)=O)C(=O)N[C@@H](CO)C(=O)NCC(=O)O)[C@@H](C)O` [SEQ ID NO: 144] (H-QGQEGRGLTSPHQSG-OH), the IC50 in assay [1] was over 40 µM; in assay [2] it was over 40 µM; in assay [3] it was over 40 µM; in assay [4], 39.3 µM.
In the case of `C[C@@H](O)[C@H](NC(=O)[C@@H]1CCCN1C(=O)[C@H](Cc1ccc(O)cc1)NC(=O)[C@H](CCCNC(=N)N)NC(=O)CNC(=O)[C@H](CCC(=O)O)NC(=O)[C@H](CCC(N)=O)NC(=O)CNC(=O)[C@@H](N)CCC(N)=O)C(=O)N[C@@H](CO)C(=O)N1CCC[C@H]1C(=O)N[C@@H](CCCCN)C(=O)N[C@@H](CCC(N)=O)C(=O)N[C@@H](CO)C(=O)NCC(=O)O` [SEQ ID NO: 146] (H-QGQEGRYPTSPKQSG-OH), the IC50 in assay [1], in assay [2], in assay [3] and in assay [4] was over 40 µM in each case.
`CC(C)C[C@H](NC(=O)[C@H](CO)NC(=O)[C@@H](NC(=O)[C@@H]1CCCN1C(=O)[C@H](Cc1ccc(O)cc1)NC(=O)[C@H](Cc1ccc(O)cc1)NC(=O)CNC(=O)[C@@H]1CCCN1C(=O)[C@H](CCC(N)=O)NC(=O)CNC(=O)[C@@H](N)CCC(N)=O)[C@@H](C)O)C(=O)N[C@H](C(=O)N[C@@H](CCC(N)=O)C(=O)N[C@@H](CO)C(=O)NCC(=O)O)[C@@H](C)O` [SEQ ID NO: 147] (H-QGQPGYYPTSLTQSG-OH): the IC50 in assay [1], in assay [2], in assay [3] and in assay [4] was over 40 µM throughout.
Regarding `C[C@@H](O)[C@H](NC(=O)[C@@H]1CCCN1C(=O)[C@H](CC(=O)O)NC(=O)[C@H](Cc1ccc(O)cc1)NC(=O)CNC(=O)[C@H](CO)NC(=O)[C@H](CCC(N)=O)NC(=O)CNC(=O)[C@@H](N)CCC(N)=O)C(=O)N[C@@H](CO)C(=O)N1CCC[C@H]1C(=O)N[C@H](C(=O)N[C@@H](CCC(N)=O)C(=O)N[C@@H](CO)C(=O)NCC(=O)O)[C@@H](C)O` [P1d] (H-QGQSGYDPTSPTQSG-OH), the IC50 in assay [1] (setting [9]), in assay [2] (setting [9]), in assay [3] (setting [9]) and in assay [4] (setting [9]) was over 40 µM in each case.
As for `C[C@H](NC(=O)[C@@H]1CCCN1C(=O)CNC(=O)[C@H](Cc1c[nH]cn1)NC(=O)CNC(=O)[C@H](CCC(=O)O)NC(=O)[C@H](CCC(N)=O)NC(=O)CNC(=O)[C@@H](N)CCC(N)=O)C(=O)N[C@@H](CO)C(=O)N1CCC[C@H]1C(=O)N[C@@H](CCCCN)C(=O)N[C@@H](CCC(N)=O)C(=O)N[C@@H](CO)C(=O)NCC(=O)O` [SEQ ID NO: 174] (H-QGQEGHGPASPKQSG-OH), the IC50 was over 40 µM in assay [1], over 40 µM in assay [2], over 40 µM in assay [3] and 16.4 µM in assay [4].
In the case of QGQEPYGPSSPEQSG-OH [modified 15-mer peptide … (SEQ ID NO: 176)], the IC50 in assay [5] was found to be 28.6 µM.
In the case of QGQQGYYPTSPQQSG-OH [P1a, native HMW glutenin 15-mer peptide … (SEQ ID NO: 49)], the values for the IC50 in assay [6] and in assay [7] were 14.2 µM and 29.8 µM, respectively.
In turn, QGQEGRGLTSPHQSG-OH [modified 15-mer peptide … (SEQ ID NO: 144)] displayed an IC50 in assay [5] of 39.3 µM.
Regarding QGQPRYYPTSPRQSG-OH [P1e, modified 15-mer peptide … (SEQ ID NO: 53)], the figures for the IC50 in assay [6], in assay [5] and in assay [7] were 32.5 µM, 19.4 µM and 33.2 µM, respectively.
Regarding QGQEGHGPASPKQSG-OH [modified 15-mer peptide … (SEQ ID NO: 174)], the IC50 in assay [5] stood at 16.4 µM. This lies in the double-digit micromolar range.
On to QGQEGYYPTSPEQSG-OH [P1b, deamidated HMW glutenin 15-mer peptide … (SEQ ID NO: 50)], for which the IC50 in assay [6] is 3.75 µM; in assay [7] it was 3.29 µM.
QGQEWHYPTSTEQSG-OH [P1h, modified 15-mer peptide … (SEQ ID NO: 56)] returned an IC50 in assay [8] of 5.72 µM.
In turn, QGAAGYYPTSPRQSG-OH [P1c, modified 15-mer peptide … (SEQ ID NO: 51)] returned an IC50 in assay [5] of 19.9 µM.
